Results: patent publication US12466813B2, “PRC1 inhibitors and methods of treatment therewith” (The Regents of the University of Michigan, priority 2018, dated 2025)

The molecules below were run against T1, RING1B-BMI1 (Homo sapiens, UniProt Q99496) (assay: KD classes of Table A (direct binding to Ring1B-Bmi1)). Conditions: class given in Table A.
T1 sequence (Q99496 1-336): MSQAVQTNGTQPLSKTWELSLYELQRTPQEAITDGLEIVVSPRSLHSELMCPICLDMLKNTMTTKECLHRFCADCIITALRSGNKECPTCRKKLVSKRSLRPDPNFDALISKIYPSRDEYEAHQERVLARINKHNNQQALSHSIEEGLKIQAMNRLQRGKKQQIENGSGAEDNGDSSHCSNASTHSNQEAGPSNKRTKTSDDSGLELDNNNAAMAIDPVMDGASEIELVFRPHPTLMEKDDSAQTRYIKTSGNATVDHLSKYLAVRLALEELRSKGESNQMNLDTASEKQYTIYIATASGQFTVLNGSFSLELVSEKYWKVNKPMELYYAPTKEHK
T1 sequence (P35226 1-326 partner): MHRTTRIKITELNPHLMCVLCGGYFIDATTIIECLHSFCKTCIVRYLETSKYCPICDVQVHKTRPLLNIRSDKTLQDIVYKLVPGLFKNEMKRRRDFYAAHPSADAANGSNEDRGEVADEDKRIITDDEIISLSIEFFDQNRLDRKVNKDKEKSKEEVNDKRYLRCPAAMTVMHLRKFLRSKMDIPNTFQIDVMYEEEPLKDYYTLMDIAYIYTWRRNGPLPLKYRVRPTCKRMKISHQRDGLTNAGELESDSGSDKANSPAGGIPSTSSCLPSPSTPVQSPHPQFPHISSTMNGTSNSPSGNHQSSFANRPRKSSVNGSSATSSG

Structure (SMILES)	Kd
CCCc1c(-c2cccc3[nH]ccc23)[nH]c(C(=O)O)c1-c1ccccc1Cl [compound 95]	50 to 100 µM
Cc1c[nH]c2nccc(-c3c(C(=O)O)[nH]c(-c4cc(F)cc5[nH]ccc45)c3C(C)C)c12 [compound 208]	< 20 µM
CC(C)c1c(-c2cc(F)cc3[nH]ccc23)[nH]c(C(=O)O)c1-c1ccc2[nH]ccc2c1 [compound 38]	< 20 µM
CC(C)c1c(-c2cc(F)cc3[nH]ccc23)[nH]c(C(=O)O)c1-c1cc(OCC(=O)O)ccc1Cl [compound 60]	< 20 µM
COc1cnc2[nH]ccc2c1-c1c(C(=O)O)[nH]c(-c2cc(F)cc3[nH]ccc23)c1C(C)C [compound 247]	< 20 µM
Cc1cc(-c2c(C(=O)O)[nH]c(-c3cc(F)cc4[nH]ccc34)c2C(C)C)c2cc[nH]c2c1 [compound 51]	< 20 µM
CC(C)c1c(-c2ccc3[nH]ccc3c2)[nH]c(C(=O)O)c1-c1c(Cl)ccc2[nH]ccc12 [compound 181]	< 20 µM
CC(C)c1c(-c2cc(F)cc3[nH]ccc23)[nH]c(C(=O)O)c1-c1c(Cl)cnc2[nH]ccc12 [compound 245]	< 20 µM
CCOc1ccccc1-c1ccc(C(=O)O)[nH]1 [compound 140]	> 100 µM
O=C(O)c1ccc(-c2cccc3ncccc23)[nH]1 [compound 160]	> 100 µM
CC(C)c1c(-c2cc(F)cc3[nH]ccc23)[nH]c(C(=O)O)c1-c1ccnc2[nH]c(-c3ccccc3Cl)cc12 [compound 254]	< 20 µM
CCc1c(-c2cccc3c2ccn3C)[nH]c(C(=O)O)c1-c1ccc(F)c(C)c1 [compound 109]	> 100 µM
O=C(O)c1cc(-c2ccccc2)c(-c2cccc3[nH]ccc23)[nH]1 [compound 118]	> 100 µM
CC(C)c1c(-c2cc(F)cc3[nH]ccc23)[nH]c(CCC(=O)O)c1-c1cccc2[nH]ccc12 [compound 216]	< 20 µM
CC(C)c1c(-c2cc(F)cc3[nH]ccc23)[nH]c(C(=O)O)c1-c1cccc2nc(NS(C)(=O)=O)sc12 [compound 232]	< 20 µM
CCc1c(-c2cccc3[nH]ccc23)[nH]c(C(=O)O)c1Cc1ccccc1 [compound 79]	20 to 50 µM
CC(C)c1c(-c2cc(F)cc3[nH]cc(CCO)c23)[nH]c(C(=O)O)c1-c1c(Cl)ccc2[nH]ccc12 [compound 28]	< 20 µM
CCc1c(-c2cccc3[nH]ccc23)[nH]c(C(=O)O)c1CCc1ccccc1 [compound 90]	50 to 100 µM
CC(C)c1c(-c2cc(F)cc3[nH]ccc23)[nH]c(C(=O)O)c1-c1cccc2ncsc12 [compound 204]	< 20 µM
CC(C)c1c(-c2cccc3[nH]ccc23)[nH]c(C(=O)O)c1-c1cccc2[nH]ccc12 [compound 33]	< 20 µM
CC(C)c1c(-c2cc(F)cc3[nH]ccc23)[nH]c(C(=O)O)c1-c1c(Cl)ccc2[nH]ccc12 [compound 14]	< 20 µM
CC(CO)c1c(-c2cccc3[nH]ccc23)[nH]c(C(=O)O)c1-c1cccc2[nH]ccc12 (centres unmarked) [compound 31]	< 20 µM
CC(C)c1c(-c2cccc3[nH]ccc23)c(C(=O)O)n2c1-c1cc(F)cc3ccn(c13)S(=O)(=O)C2 [compound 273]	< 20 µM

Structure (SMILES)	Kd
CC(C)c1c(-c2cc(F)cc3[nH]ccc23)[nH]c(CS(N)(=O)=O)c1-c1cccc2[nH]ccc12 [compound 219]	< 20 µM
CC(C)c1c(-c2cccc3[nH]ccc23)c(C(=O)O)n2c1-c1cc(F)cc3ccn(c13)[C@H](C)C2 [compound 272]	< 20 µM
CC(C)c1c(-c2cc(F)cc3[nH]ccc23)[nH]c(C(=O)O)c1-c1cccc2[nH]c(C(=O)Nc3nccs3)cc12 [compound 261]	< 20 µM
COc1cc(-c2c(C(=O)O)[nH]c(-c3cc(F)cc4[nH]ccc34)c2C(C)C)c2ccn(CC(=O)NCc3nc(C)cs3)c2c1 [compound 179]	< 20 µM
CC(C)c1c(-c2cc(F)cc3[nH]ccc23)[nH]c(C(=O)O)c1-c1cc(Oc2nccs2)cc2[nH]ccc12 [compound 201]	< 20 µM
O=C(O)c1ccc(-c2cccc3[nH]ncc23)[nH]1 [compound 126]	> 100 µM
COCCC(=O)NCCn1ccc2c(-c3c(C(=O)O)[nH]c(-c4cc(F)cc5[nH]ccc45)c3C(C)C)cc(OC)cc21 [compound 176]	< 20 µM
Cc1c[nH]c2cccc(-c3c(C(=O)O)[nH]c(-c4cccc5[nH]ccc45)c3C(C)C)c12 [compound 34]	< 20 µM
CCc1c(-c2cccc3[nH]ccc23)[nH]c(C(=O)O)c1-c1ccccc1 [compound 89]	20 to 50 µM
CC(C)c1c(-c2cc(F)cc3[nH]ccc23)[nH]c(C(=O)O)c1-c1cc(C(=O)N2CCCC2)cc2[nH]ccc12 [compound 198]	< 20 µM
CCc1cc(-c2c(C(=O)O)[nH]c(-c3cc(F)cc4[nH]ccc34)c2C(C)C)c2cc[nH]c2c1 [compound 45]	< 20 µM
CC(C)c1c(-c2cc(F)cc3[nH]ccc23)[nH]c(C(=O)O)c1-c1cccc2[nH]c(CO)cc12 [compound 189]	< 20 µM
COc1ccccc1-c1ccc(C(=O)O)[nH]1 [compound 142]	> 100 µM
Cc1ccccc1-c1ccc(C(=O)O)[nH]1 [compound 154]	> 100 µM
COc1cccc(-c2c(C(=O)O)[nH]c(-c3cc(F)cc4[nH]ccc34)c2C(C)C)c1Cl [compound 57, 3-(2-chloro-3-methoxyphenyl)-5-(6-fluoro-1H-indol-4-yl)-4-isopropyl-1H-pyrrole-2-carboxylic acid]	< 20 µM
COc1ccc(-c2c(C(=O)O)[nH]c(-c3cc(F)cc4[nH]ccc34)c2C(C)C)c(F)c1 [compound 58]	< 20 µM
Cc1c(-c2cccc3[nH]ccc23)[nH]c(C(=O)O)c1-c1ccccc1Cl [compound 93]	50 to 100 µM
Cn1c(C(=O)O)ccc1-c1cccc2[nH]ccc12 [compound 123]	> 100 µM
CCc1c(-c2ccccc2O)[nH]c(C(=O)O)c1-c1ccccc1Cl [compound 107]	> 100 µM
CCn1ccc2cc(-c3[nH]c(C(=O)O)c(-c4c(Cl)ccc5[nH]ccc45)c3C(C)C)ccc21 [compound 184]	< 20 µM
CC(C)c1c(-c2cc(F)cc3[nH]ccc23)[nH]c(C(=O)O)c1-c1cccc2c1ccn2CCS(C)(=O)=O [compound 267]	< 20 µM
CC(C)c1c(-c2cc(F)cc3[nH]ccc23)[nH]c(C(=O)O)c1-c1cccc2[nH]ncc12 [compound 40]	< 20 µM
CCc1c(-c2cccc3[nH]ccc23)[nH]c(C(=O)O)c1-c1cccc(Oc2ccccc2)c1 [compound 97]	50 to 100 µM

Structure (SMILES)	Kd
Cc1ccc(-c2ccc(C(=O)O)[nH]2)cc1 [compound 151]	> 100 µM
CC(C)c1c(-c2cc(F)cc3[nH]ccc23)[nH]c(C(=O)O)c1-c1cccc2[nH]c(S(C)(=O)=O)cc12 [compound 228]	< 20 µM
CC(C)c1c(-c2cc(F)cc3[nH]ccc23)[nH]c(C(=O)O)c1-c1ccnc2[nH]c(C3=CCN(S(C)(=O)=O)CC3)cc12 [compound 256]	< 20 µM
CCc1c(C(=O)O)[nH]c(-c2cccc3[nH]ccc23)c1CC [compound 112]	> 100 µM
CC(C)c1c(-c2cc(F)cc3[nH]ccc23)[nH]c(C(=O)O)c1-c1ccc(Oc2ccncc2)cc1 [compound 63]	< 20 µM
CCc1c(-c2cccc3[nH]ccc23)[nH]c(C(=O)O)c1-c1ccc(OC)cc1Cl [compound 24]	< 20 µM
CC(C)c1c(-c2cccc3[nH]c(C(=O)O)cc23)[nH]c(C(=O)O)c1-c1c(Cl)ccc2[nH]ccc12 [compound 49]	< 20 µM
CCOC(=O)c1[nH]c(-c2cccc3[nH]ncc23)c(CC)c1-c1ccc(OC)cc1Cl [compound 163]	> 100 µM
CC(C)CCOc1cc(-c2c(C(=O)O)[nH]c(-c3cc(F)cc4[nH]ccc34)c2C(C)C)c2cc[nH]c2c1 [compound 196]	< 20 µM
COc1cc(-c2c(C(=O)O)[nH]c(-c3cc(F)cc4[nH]ccc34)c2C(C)C)c2cc(C(=O)O)[nH]c2c1 [compound 50]	< 20 µM
CC(C)c1c(-c2cc(F)cc3[nH]ccc23)[nH]c(C(=O)O)c1-c1cccc2c1ccn2CCO [compound 44]	< 20 µM
CCc1c(-c2cccc3[nH]ccc23)[nH]c(C(=O)O)c1-c1cc([N+](=O)[O-])ccc1Cl [compound 81]	20 to 50 µM
O=C(O)c1ccc(-c2ccc(C(F)(F)F)cc2)[nH]1 [compound 150]	> 100 µM
O=C(O)c1ccc(-c2cccc3[nH]ccc23)[nH]1 [compound 134]	> 100 µM
COc1cc(-c2c(C(=O)O)[nH]c(-c3cc(F)cc4[nH]ccc34)c2C(C)C)c2ccn(CC(N)=O)c2c1 [compound 175]	< 20 µM
CC(C)c1c(-c2cc(F)cc3[nH]ccc23)[nH]c(C(=O)O)c1-c1cccc2nc[nH]c12 [compound 206]	< 20 µM
CC(C)c1c(-c2cc(F)cc3[nH]ccc23)[nH]c(C(=O)O)c1-c1c2cc[nH]c2cc2[nH]ccc12 [compound 269]	< 20 µM
CCc1c(-c2cccc3[nH]ccc23)[nH]c(C(=O)O)c1CC1CCCCC1 [compound 78]	20 to 50 µM
O=C(O)c1ccc(-c2cccc(OCC3CC3)c2)[nH]1 [compound 131]	> 100 µM
COc1cc(-c2c(C(=O)O)[nH]c(-c3cc(F)cc4[nH]ccc34)c2C(C)C)c2cc(C)[nH]c2c1 [compound 193]	< 20 µM
CC(C)Cc1cc2c(-c3c(C(=O)O)[nH]c(-c4cc(F)cc5[nH]ccc45)c3C(C)C)cccc2[nH]1 [compound 202]	< 20 µM
Cc1cc(-c2cccc3c2ccn3C)[nH]c1C(=O)O [compound 117]	> 100 µM
